The results in this text go back to PMC4705544, “CPUY201112, a novel synthetic small-molecule compound and inhibitor of heat shock protein Hsp90, induces p53-mediated apoptosis in MCF-7 cells” (Scientific Reports, 2016).

This test concerns the target T1, Hsp90α (Homo sapiens, UniProt P07900).
T1 construct: gene HSP90AA1; full-length Hsp90
The experiment in a line: BLI (ForteBio Octet Red […]); also FP competition with FITC-geldanamycin (IC50 […]) and HTRF ATPase inhibition. The class given is binding. Background: Biolayer interferometry detects binding as a change in optical thickness at a sensor tip.

`CCOc1ncc2c(n1)CCN(C(=O)c1cc(C(C)C)c(O)cc1O)C2` [CPUY201112] came in with a Kd of 27 ± 5 nM.

By Kd is commonly meant the constant that tells how readily two partners part at equilibrium. Higher therefore signals lower affinity.
